Data taken from ChEMBL document CHEMBL3425509, “Design, synthesis, and biological evaluation of benzofuran- and 2,3-dihydrobenzofuran-2-carboxylic acid N-(substituted)phenylamide derivatives as anticancer agents and inhibitors of NF-κB” (Bioorg Med Chem Lett, 2015).

Assays:
[1] = molecular target: Nuclear factor NF-kappa-B complex (Homo sapiens) (UniProt Q00653+P19838+Q04206); assay: Inhibition of NF-kappaB (unknown origin) transcriptional activity in LPS-induced mouse RAW264.7 cells at 30 uM after 1 hr by secreted alkaline phosphatase assay relative to control; format: cell-based
[2] = Cytotoxicity against human PC3 cells assessed as cell viability at 10 uM after 72 hrs by sulforhodamine B assay relative to control; format: functional; details: PC-3, 72 h, read-out: Activity
MDA-MB-231 = assay: Cytotoxicity against human MDA-MB-231 cells assessed as cell viability at 10 uM after 72 hrs by sulforhodamine B assay relative to control; format: functional; details: MDA-MB-231, 72 h, read-out: Activity
NCI-H23 = assay: Cytotoxicity against human NCI-H23 cells assessed as cell viability at 10 uM after 72 hrs by sulforhodamine B assay relative to control; format: functional; details: NCI-H23, 72 h, read-out: Activity
[3] = Cytotoxicity against human HCT15 cells assessed as cell viability at 10 uM after 72 hrs by sulforhodamine B assay relative to control; format: functional; details: HCT-15, 72 h, read-out: Activity
[4] = Cytotoxicity against human NUGC3 cells assessed as cell viability at 10 uM after 72 hrs by sulforhodamine B assay relative to control; format: functional; details: NUGC-3, 72 h, read-out: Activity
ACHN = assay: Cytotoxicity against human ACHN cells assessed as cell viability at 10 uM after 72 hrs by sulforhodamine B assay relative to control; format: functional; details: read-out: Activity

Sequence of Nuclear factor NF-kappa-B complex (Homo sapiens) (P19838 whole entry, looked up): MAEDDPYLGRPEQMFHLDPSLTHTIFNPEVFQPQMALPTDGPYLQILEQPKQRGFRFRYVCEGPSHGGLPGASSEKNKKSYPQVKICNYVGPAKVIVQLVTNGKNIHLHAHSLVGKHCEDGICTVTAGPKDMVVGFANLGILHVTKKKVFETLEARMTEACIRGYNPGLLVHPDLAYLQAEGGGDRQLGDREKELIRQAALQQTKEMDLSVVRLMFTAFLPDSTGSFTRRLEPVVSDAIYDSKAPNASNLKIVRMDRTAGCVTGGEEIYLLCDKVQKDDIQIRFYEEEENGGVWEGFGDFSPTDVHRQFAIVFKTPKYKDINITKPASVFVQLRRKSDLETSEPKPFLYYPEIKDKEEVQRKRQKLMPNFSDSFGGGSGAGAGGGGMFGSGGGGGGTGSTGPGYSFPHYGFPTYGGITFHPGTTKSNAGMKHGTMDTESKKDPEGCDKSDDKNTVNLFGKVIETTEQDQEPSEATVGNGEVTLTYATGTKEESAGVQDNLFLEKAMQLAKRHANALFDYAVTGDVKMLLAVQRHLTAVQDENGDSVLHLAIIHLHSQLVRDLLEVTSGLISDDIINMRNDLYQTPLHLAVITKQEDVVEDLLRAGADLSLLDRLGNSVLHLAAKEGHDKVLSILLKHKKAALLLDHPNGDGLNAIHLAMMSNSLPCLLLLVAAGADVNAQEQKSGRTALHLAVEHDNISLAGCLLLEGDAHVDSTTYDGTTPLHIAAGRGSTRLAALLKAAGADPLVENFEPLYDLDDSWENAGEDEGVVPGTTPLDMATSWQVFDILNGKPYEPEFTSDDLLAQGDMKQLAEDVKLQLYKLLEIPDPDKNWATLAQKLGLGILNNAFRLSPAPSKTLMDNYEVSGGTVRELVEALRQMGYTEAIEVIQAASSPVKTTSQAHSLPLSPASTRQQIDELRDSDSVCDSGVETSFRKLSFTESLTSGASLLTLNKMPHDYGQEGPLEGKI
Sequence of Nuclear factor NF-kappa-B complex (Homo sapiens) (Q00653 whole entry, looked up): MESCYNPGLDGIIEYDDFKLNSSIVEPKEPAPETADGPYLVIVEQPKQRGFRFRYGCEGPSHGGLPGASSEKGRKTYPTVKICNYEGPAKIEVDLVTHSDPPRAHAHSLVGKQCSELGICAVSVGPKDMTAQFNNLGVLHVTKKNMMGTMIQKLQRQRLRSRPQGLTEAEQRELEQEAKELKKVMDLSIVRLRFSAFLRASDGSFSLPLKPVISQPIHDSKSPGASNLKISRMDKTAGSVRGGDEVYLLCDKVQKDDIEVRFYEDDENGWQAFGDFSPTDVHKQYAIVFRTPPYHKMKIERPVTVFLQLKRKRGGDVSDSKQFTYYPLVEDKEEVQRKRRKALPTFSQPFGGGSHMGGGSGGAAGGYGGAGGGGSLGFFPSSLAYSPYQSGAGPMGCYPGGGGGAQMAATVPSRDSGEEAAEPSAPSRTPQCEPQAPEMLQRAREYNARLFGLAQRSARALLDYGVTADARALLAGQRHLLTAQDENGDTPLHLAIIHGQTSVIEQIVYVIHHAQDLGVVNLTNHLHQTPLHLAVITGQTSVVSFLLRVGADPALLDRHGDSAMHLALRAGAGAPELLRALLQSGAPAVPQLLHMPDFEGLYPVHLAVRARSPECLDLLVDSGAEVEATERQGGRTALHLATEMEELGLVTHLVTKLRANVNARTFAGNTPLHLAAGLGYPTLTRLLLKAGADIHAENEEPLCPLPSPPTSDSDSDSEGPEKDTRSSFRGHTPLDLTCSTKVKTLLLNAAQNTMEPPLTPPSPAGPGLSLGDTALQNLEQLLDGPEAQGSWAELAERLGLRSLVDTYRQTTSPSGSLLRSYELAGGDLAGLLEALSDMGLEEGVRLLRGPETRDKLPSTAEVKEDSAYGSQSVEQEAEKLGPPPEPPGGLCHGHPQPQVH
Sequence of Nuclear factor NF-kappa-B complex (Homo sapiens) (Q04206 whole entry, looked up): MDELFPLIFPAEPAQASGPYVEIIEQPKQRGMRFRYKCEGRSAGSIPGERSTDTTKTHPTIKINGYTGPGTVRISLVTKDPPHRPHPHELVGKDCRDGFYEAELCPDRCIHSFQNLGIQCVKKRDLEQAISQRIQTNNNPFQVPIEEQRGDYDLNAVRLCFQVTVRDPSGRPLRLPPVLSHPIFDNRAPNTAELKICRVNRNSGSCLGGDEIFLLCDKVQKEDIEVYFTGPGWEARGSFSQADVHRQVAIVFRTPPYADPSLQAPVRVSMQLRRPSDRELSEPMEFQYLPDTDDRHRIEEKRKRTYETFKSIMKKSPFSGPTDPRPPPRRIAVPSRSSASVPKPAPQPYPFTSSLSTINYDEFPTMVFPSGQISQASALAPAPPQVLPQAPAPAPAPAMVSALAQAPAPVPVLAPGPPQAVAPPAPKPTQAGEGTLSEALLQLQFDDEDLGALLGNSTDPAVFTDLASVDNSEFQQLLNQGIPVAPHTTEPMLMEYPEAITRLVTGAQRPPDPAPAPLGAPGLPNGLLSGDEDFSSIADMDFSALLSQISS

Row | SMILES | inhibition [1] | viability at 10 µM [2] | viability at 10 µM (MDA-MB-231) | viability at 10 µM (NCI-H23) | viability at 10 µM [3] | viability at 10 µM [4] | viability at 10 µM (ACHN)
1 | O=C(Nc1cc(C(F)(F)F)cc(C(F)(F)F)c1)C1Cc2ccccc2O1 (configuration not stated) | 25% | 96% | 105% | 92% | 92% | 105% | 94%
2 | O=C(Nc1ccc(C(F)(F)F)cc1)c1cc2ccccc2o1 | 34.5% | 74% | 89% | 89% | 80% | 75% | 79%
3 | Cc1ccc(C)c(NC(=O)C2Cc3ccccc3O2)c1 (configuration not stated) | 22% | 55% | 88% | 103% | 88% | 81% | 129%
4 | Cc1ccccc1NC(=O)c1cc2ccccc2o1 | 46% | 100% | 101% | 89% | 93% | 98% | 106%
5 | Cc1cc(C)cc(NC(=O)c2cc3ccccc3o2)c1 | 70% | 94% | 94% | 99% | 79% | 93% | 101%
6 | O=C(Nc1ccccc1)c1cc2ccccc2o1 | 44% | 83% | 94% | 98% | 75% | 97% | 89%
7 | Cc1ccc(NC(=O)C2Cc3ccccc3O2)cc1C (configuration not stated) | 44.5% | 94% | 86% | 92% | 97% | 99% | 137%
8 | COc1ccc(OC)c(NC(=O)c2cc3ccccc3o2)c1 | 23% | 106% | 101% | 103% | 97% | 91% | 102%
9 | O=C(Nc1ccccc1C(F)(F)F)C1Cc2ccccc2O1 (configuration not stated) | 44.5% | 74% | 98% | 102% | 98% | 103% | 136%
10 | O=C(Nc1cc(Cl)cc(Cl)c1)c1cc2ccccc2o1 | 20% | 99% | 102% | 100% | 95% | 93% | 99%
11 | O=C(Nc1ccc(Cl)c(Cl)c1)c1cc2ccccc2o1 | 40% | 113% | 80% | 100% | 96% | 102% | 95%
12 | O=C(Nc1cc(Cl)ccc1Cl)C1Cc2ccccc2O1 (configuration not stated) | 42.5% | 84% | 74% | 90% | 77% | 105% | 101%
13 | Cc1ccc(C)c(NC(=O)c2cc3ccccc3o2)c1 | 58% | 98% | 102% | 94% | 94% | 88% | 82%
14 | Cc1cccc(NC(=O)c2cc3ccccc3o2)c1 | 38% | 94% | 106% | 101% | 87% | 99% | 93%
15 | O=C(Nc1ccccc1[N+](=O)[O-])c1cc2ccccc2o1 | 25.5% | 92% | 102% | 95% | 73% | 95% | 91%
16 | O=C(Nc1ccccc1Cl)C1Cc2ccccc2O1 (configuration not stated) | 37.5% | 96% | 81% | 104% | 102% | 104% | 87%
17 | O=C(Nc1cccc([N+](=O)[O-])c1)C1Cc2ccccc2O1 (configuration not stated) | 40% | 77% | 92% | 95% | 83% | 83% | 109%
18 | O=C(Nc1cc(C(F)(F)F)ccc1C(F)(F)F)C1Cc2ccccc2O1 (configuration not stated) | 34% | 88% | 98% | 87% | 81% | 99% | 105%
19 | O=C(Nc1ccccc1)C1Cc2ccccc2O1 (configuration not stated) | 10% | 92% | 101% | 93% | 88% | 87% | 95%
20 | Cc1ccccc1NC(=O)C1Cc2ccccc2O1 (configuration not stated) | 38% | 87% | 103% | 91% | 88% | 91% | 108%
21 | COc1ccccc1NC(=O)c1cc2ccccc2o1 | 41% | 106% | 97% | 98% | 94% | 99% | 95%
22 | COc1ccc(OC)c(NC(=O)C2Cc3ccccc3O2)c1 (configuration not stated) | 39.5% | 81% | 89% | 99% | 97% | 95% | 126%
23 | COc1cc(NC(=O)C2Cc3ccccc3O2)cc(OC)c1 (configuration not stated) | 24% | 73% | 78% | 95% | 91% | 96% | 123%
24 | O=C(Nc1cccc(Cl)c1)c1cc2ccccc2o1 | 37% | 95% | 80% | 61% | 52% | 83% | 69%
25 | O=C(Nc1cccc(C(F)(F)F)c1)C1Cc2ccccc2O1 (configuration not stated) | 30.5% | 69% | 102% | 100% | 95% | 93% | 134%

Continued, in another order:

Row | inhibition [1] | SMILES | viability at 10 µM [2] | viability at 10 µM (MDA-MB-231) | viability at 10 µM (NCI-H23) | viability at 10 µM [3] | viability at 10 µM [4] | viability at 10 µM (ACHN)
26 | 49.5% | O=C(Nc1ccccc1Cl)c1cc2ccccc2o1 | 91% | 76% | 91% | 75% | 86% | 76%
27 | 22.5% | COc1ccc(NC(=O)C2Cc3ccccc3O2)cc1 (configuration not stated) | 81% | 94% | 102% | 89% | 108% | 140%
28 | 21.5% | COc1ccc(NC(=O)C2Cc3ccccc3O2)cc1OC (configuration not stated) | 38% | 71% | 101% | 92% | 87% | 127%
29 | 28.5% | O=C(Nc1ccccc1[N+](=O)[O-])C1Cc2ccccc2O1 (configuration not stated) | 89% | 92% | 97% | 94% | 89% | 108%
30 | 40% | COc1ccc(NC(=O)c2cc3ccccc3o2)cc1OC | 98% | 81% | 102% | 92% | 90% | 99%
31 | 23% | O=C(Nc1ccccc1O)c1cc2ccccc2o1 | 68% | 85% | 86% | 58% | 84% | 84%
32 | 16.5% | COc1cccc(NC(=O)C2Cc3ccccc3O2)c1 (configuration not stated) | 89% | 80% | 102% | 99% | 106% | 135%
33 | 29% | COc1ccccc1NC(=O)C1Cc2ccccc2O1 (configuration not stated) | 88% | 89% | 111% | 100% | 111% | 134%
34 | 41% | O=C(Nc1ccc(C(F)(F)F)cc1)C1Cc2ccccc2O1 (configuration not stated) | 60% | 82% | 97% | 96% | 99% | 124%
35 | 34.5% | COc1cccc(NC(=O)c2cc3ccccc3o2)c1 | 106% | 127% | 105% | 87% | 99% | 105%
36 | 34% | Cc1cc(C)cc(NC(=O)C2Cc3ccccc3O2)c1 (configuration not stated) | 94% | 97% | 97% | 91% | 95% | 136%
